Publication PMC10306345 (Journal of medicinal chemistry, 2013)
Read-outs that look alike come from different tables or passages of the source.

Columns and labels:
vaccinia virus (VACV) = assay: microbe, parasite or virus in culture; assay type: cell-based; conditions: for IC50: Orthopoxvirus vaccinia
[1] = system: recombinant VACV (vL1Ri) EGFP under synthetic early/late promoter; assay type: cell-based, vaccinia virus
E3 protein = assay type: cell-based, vaccinia virus
A4 protein = assay type: cell-based, vaccinia virus
[2] = system: VACV viral factories in BSC-1 cells; assay type: cell-based, vaccinia virus
[3] = system: E9/A20/D4 dependent in vitro DNA synthesis; conditions: cited from earlier work

Row | SMILES | antiviral activity (in words) (vaccinia virus (VACV)) | further results
1 | COC(=O)c1[nH]c2cc(C)ccc2c1Sc1cc(Cl)cc(Cl)c1 [Compound 27] | loss of activity | 
2 | Cc1ccc2c(Sc3ccc(C(F)(F)F)cc3[N+](=O)[O-])c(C(=O)O)[nH]c2c1 [Compound 31] | loss of activity | 
3 | Nc1ccn(C[C@@H](CO)OCP(=O)(O)O)c(=O)n1.O.O [CDV, cidofovir, reference compound] |  | EGFP expression [1]: equally effective; EGFP expression, treatment post vL1Ri adsorption [1]: comparable EGFP expression and CPE to DMSO vehicle
4 | COC(=O)c1[nH]c2c(C)cccc2c1Sc1ccc(Cl)cc1 [Compound 8] |  | fold improvement in antiviral potency over parent 1 (vaccinia virus (VACV)): ~ 4 fold
5 | Cc1cccc2[nH]c(C(=O)O)c(Sc3ccc([N+](=O)[O-])cc3)c12 [Compound 19c] | loss of activity | 
6 | Cc1ccc2c(Sc3cc(Cl)cc(Cl)c3)c(CCC(N)=O)[nH]c2c1 [Compound 24a, 3-(3-((3,5-Dichlorophenyl)thio)-6-methyl-1H-indol-2-yl)propanamide] |  | EGFP expression [1]: significantly reduced; EGFP expression, treatment post vL1Ri adsorption [1]: appreciable EGFP expression; cytopathic effect (CPE) [1]: lowered; E3 early protein level (E3 protein): slight decrease; A4 late protein level (A4 protein): dramatically reduced in a dose-dependent manner; BrdU labeling of viral factories [2]: significantly suppressed
7 | COC(=O)c1[nH]c2ccc(C)cc2c1Sc1ccc(Cl)cc1 [Compound 7] | lost activity | 
8 | Cc1ccc(Sc2c(C(=O)O)[nH]c3cc(C)ccc23)cc1 [Compound 18d] | failed to show antiviral activities | 
9 | Cc1ccc2c(Sc3cc(Cl)cc(Cl)c3)c(CCCC(N)=O)[nH]c2c1 [Compound 24c, 4-(3-((3,5-Dichlorophenyl)thio)-6-methyl-1H-indol-2-yl)butanamide] |  | fold decrease in antiviral potency (vaccinia virus (VACV)): ~ 5 fold
10 | Cc1ccc2c(Sc3ccc(Cl)cc3)c(C(=O)O)[nH]c2c1 [Compound 1, 3-((4-Chlorophenyl)thio)-6-methyl-1H-indole-2-carboxylic acid] |  | inhibition of in vitro DNA synthesis [3]: ability to inhibit in vitro DNA synthesis
11 | COC(=O)c1[nH]c2cccc(C)c2c1Sc1ccc(Cl)cc1 [Compound 9] |  | fold improvement in antiviral potency over parent 1 (vaccinia virus (VACV)): ~ 4 fold
12 | O=C(O)c1[nH]c2ccccc2c1Sc1ccc(Cl)cc1 [Compound 1d] | loss of activity | 
13 | Cc1ccc2c(Sc3cc(Cl)c(Cl)cc3Cl)c(C(=O)O)[nH]c2c1 [Compound 30] |  | IC50 (vaccinia virus (VACV); read-out: IC50 (antiviral activity, Table 3)): 21 µM
14 | Cc1ccc2c(Sc3cccc(F)c3)c(C(=O)O)[nH]c2c1 [Compound 18b] |  | IC50 (vaccinia virus (VACV); read-out: IC50 (antiviral activity, Table 2)): 56 µM
15 | COC(=O)c1[nH]c2cc(C)ccc2c1Sc1ccc(Cl)cc1 [Compound 6] |  | fold improvement in antiviral potency over parent 1 (vaccinia virus (VACV)): ~ 4 fold
16 | Cc1ccc(Sc2c(C(=O)O)[nH]c3cccc(C)c23)cc1 [Compound 19a] | failed to show antiviral activities | 
17 | Cc1ccc2c(Sc3ccc(Br)cc3)c(C(=O)O)[nH]c2c1 [Compound 18c] | loss of activity | 
18 | Cc1ccc2c(Sc3ccccc3)c(C(=O)O)[nH]c2c1 [Compound 18] | abolished its antiviral activity | 
19 | CCn1c(C(=O)O)c(Sc2ccc(Cl)cc2)c2cc(C)ccc21 [Compound 3] | no gain in activities | 
20 | CCCCCCNC(=O)CCc1[nH]c2cc(C)ccc2c1Sc1cc(Cl)cc(Cl)c1 [Compound 24e, 3-(3-((3,5-Dichlorophenyl)thio)-6-methyl-1H-indol-2-yl)-N-hexylpropanamide] | loss of activity | 
21 | Cc1ccc2c(Sc3ccc(C(=O)O)cc3)c(C(=O)O)[nH]c2c1 [Compound 18f] | loss of activity | 
22 | Cc1ccc2c(c1)c(Sc1ccc(Cl)cc1)c(C(=O)O)n2C [Compound 2] | loss | 
23 | COC(=O)c1ccc(Sc2c(C(=O)O)[nH]c3cccc(C)c23)cc1 [Compound 19b] | failed to show antiviral activities | 
24 | COc1ccc(Sc2c(C(=O)O)[nH]c3cccc(C)c23)cc1 [Compound 19] | failed to show antiviral activities | 
25 | CNC(=O)c1[nH]c2cc(C)ccc2c1Sc1cc(Cl)cc(Cl)c1 [Compound 28] | loss of activity | 
26 | Cc1ccc2c(Sc3cc(Cl)cc(Cl)c3)c(CCC(=O)O)[nH]c2c1 [Compound 24d, 3-(3-((3,5-Dichlorophenyl)thio)-6-methyl-1H-indol-2-yl)propanoic acid] |  | fold decrease in antiviral potency (vaccinia virus (VACV)): ~ 5 fold
27 | COc1cccc2[nH]c(C(=O)O)c(Sc3ccc(Cl)cc3)c12 [Compound 1i] | loss of activity | 
28 | COc1ccc(Sc2c(C(=O)O)[nH]c3cc(C)ccc23)cc1 [Compound 18e] | failed to show antiviral activities | 
